# Source: ChEMBL document CHEMBL5104133, “Sortase A-mediated cyclization of novel polycyclic RGD peptides for ανβ3 integrin targeting” (Bioorg Med Chem Lett, 2022)
# Tests used:
# Homo sapiens = species on record: Homo sapiens; assay: Selectivity ratio of IC50 for alphavbeta5 integrin receptor-mediated cell adhesion to vitronectin in human HT-29 cells to IC50 for alphavbeta3 integrin receptor-mediated cell adhesion to fibrinogen in human HEK293 cells; format: cell-based
# Integrin alpha-V/beta-5 = Integrin alpha-V/beta-5 (Homo sapiens, UniProt P06756+P18084); assay: Inhibition of alphavbeta5 integrin receptor-mediated cell adhesion to vitronectin in human HT-29 cells; format: cell-based
# Integrin alpha-V/beta-3 [1] = biological target: T1, Integrin alpha-V/beta-3 (Homo sapiens, UniProt P05106+P06756); assay: Inhibition of alphavbeta3 integrin receptor-mediated cell adhesion to fibrinogen in human SK-OV-3 cells […] integrin receptor; format: cell-based
# Integrin alpha-V/beta-3 [2] = biological target: T1, Integrin alpha-V/beta-3; assay: Inhibition of alphavbeta3 integrin receptor-mediated cell adhesion to fibrinogen in human HEK293 cells; format: cell-based
# Integrin alpha-5/beta-1 = Integrin alpha-5/beta-1 (Homo sapiens, UniProt P05556+P08648); assay: Inhibition of alpha5beta1 integrin receptor expressed on human surface of adipose tissue-derived stem cells; format: cell-based, Adipose tissue derived mesenchymal stem cell
# [3] = biological target: Integrin alpha-IIb/beta-3 (Homo sapiens, UniProt P05106+P08514); assay: Inhibition of alpha2bbeta3 integrin receptor expressed on human surface of platelets; format: cell-based, Platelet
# T1 sequence (P05106 27-788 limits assumed): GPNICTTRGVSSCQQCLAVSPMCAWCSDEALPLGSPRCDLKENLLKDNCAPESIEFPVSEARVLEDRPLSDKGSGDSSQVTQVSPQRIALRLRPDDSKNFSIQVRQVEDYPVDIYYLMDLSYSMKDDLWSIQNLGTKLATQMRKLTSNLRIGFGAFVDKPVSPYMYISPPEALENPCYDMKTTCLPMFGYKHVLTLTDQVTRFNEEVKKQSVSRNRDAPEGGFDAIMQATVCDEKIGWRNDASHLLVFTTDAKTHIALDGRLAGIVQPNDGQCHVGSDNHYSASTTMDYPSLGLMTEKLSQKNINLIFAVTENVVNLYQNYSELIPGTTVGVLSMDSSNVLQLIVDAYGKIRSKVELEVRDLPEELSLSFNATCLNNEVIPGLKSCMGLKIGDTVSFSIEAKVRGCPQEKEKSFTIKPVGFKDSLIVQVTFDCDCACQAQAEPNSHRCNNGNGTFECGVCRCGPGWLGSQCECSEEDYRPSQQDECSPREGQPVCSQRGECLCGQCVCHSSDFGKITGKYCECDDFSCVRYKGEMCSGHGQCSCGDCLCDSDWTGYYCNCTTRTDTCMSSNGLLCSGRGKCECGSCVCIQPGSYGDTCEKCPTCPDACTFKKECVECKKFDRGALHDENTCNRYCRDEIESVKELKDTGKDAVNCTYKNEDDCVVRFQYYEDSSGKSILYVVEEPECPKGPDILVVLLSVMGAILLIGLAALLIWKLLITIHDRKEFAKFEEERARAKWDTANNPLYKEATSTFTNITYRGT
# T1 sequence (P06756 31-889 limits assumed): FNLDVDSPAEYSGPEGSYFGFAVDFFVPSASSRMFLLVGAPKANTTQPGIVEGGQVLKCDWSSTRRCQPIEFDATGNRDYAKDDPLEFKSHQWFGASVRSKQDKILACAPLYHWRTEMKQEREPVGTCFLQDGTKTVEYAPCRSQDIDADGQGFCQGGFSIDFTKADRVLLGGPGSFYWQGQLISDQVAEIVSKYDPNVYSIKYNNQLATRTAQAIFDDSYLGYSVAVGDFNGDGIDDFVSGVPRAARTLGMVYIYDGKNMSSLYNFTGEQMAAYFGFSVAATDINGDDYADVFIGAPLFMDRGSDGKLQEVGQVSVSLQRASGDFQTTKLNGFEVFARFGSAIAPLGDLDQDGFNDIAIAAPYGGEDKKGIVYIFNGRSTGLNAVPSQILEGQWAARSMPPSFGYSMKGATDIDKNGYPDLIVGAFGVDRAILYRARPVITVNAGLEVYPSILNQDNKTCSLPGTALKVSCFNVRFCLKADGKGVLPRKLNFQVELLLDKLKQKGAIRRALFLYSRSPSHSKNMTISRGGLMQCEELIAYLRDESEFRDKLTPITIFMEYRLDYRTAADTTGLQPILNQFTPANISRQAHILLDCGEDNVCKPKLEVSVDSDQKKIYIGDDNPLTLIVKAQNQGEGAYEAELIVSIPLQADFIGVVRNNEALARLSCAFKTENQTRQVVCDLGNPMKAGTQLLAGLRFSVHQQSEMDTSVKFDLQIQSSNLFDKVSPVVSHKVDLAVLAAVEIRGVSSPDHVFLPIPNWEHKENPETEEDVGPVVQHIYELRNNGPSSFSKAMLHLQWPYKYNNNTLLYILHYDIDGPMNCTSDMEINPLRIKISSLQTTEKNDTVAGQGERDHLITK
# T1 sequence (P06756 891-1048 limits assumed): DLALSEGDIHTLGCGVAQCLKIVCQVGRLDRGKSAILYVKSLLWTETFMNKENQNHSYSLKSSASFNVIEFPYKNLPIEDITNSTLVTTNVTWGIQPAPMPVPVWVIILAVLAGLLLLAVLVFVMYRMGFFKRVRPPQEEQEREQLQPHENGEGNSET
# Integrin alpha-V/beta-5, sequence (P06756 31-889 limits assumed): as the sequence (P06756 31-889 limits assumed) above
# Integrin alpha-V/beta-5, sequence (P06756 891-1048 limits assumed): as the sequence (P06756 891-1048 limits assumed) above
# Integrin alpha-V/beta-5, sequence (P18084 24-799 limits assumed): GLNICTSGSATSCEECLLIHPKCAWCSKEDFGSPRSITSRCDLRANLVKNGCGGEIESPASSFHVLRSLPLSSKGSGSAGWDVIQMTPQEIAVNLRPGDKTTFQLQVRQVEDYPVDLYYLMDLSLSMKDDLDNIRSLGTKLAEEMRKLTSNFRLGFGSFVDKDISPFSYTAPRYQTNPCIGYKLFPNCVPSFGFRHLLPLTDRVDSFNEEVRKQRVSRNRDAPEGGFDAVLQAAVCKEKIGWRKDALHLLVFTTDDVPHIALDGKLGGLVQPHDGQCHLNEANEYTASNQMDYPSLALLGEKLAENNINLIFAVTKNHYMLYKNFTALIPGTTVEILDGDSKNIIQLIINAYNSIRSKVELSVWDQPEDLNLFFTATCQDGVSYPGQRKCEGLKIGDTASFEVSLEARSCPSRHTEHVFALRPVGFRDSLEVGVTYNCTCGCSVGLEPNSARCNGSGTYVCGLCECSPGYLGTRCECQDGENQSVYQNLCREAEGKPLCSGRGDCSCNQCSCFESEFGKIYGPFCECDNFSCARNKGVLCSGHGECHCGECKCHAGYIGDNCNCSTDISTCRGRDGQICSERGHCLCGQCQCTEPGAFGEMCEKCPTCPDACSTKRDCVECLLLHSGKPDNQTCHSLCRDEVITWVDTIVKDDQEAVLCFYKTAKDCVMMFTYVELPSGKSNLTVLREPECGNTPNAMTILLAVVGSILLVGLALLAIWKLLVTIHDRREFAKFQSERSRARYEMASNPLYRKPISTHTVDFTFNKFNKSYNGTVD
# Integrin alpha-5/beta-1, sequence (P05556 21-798 limits assumed): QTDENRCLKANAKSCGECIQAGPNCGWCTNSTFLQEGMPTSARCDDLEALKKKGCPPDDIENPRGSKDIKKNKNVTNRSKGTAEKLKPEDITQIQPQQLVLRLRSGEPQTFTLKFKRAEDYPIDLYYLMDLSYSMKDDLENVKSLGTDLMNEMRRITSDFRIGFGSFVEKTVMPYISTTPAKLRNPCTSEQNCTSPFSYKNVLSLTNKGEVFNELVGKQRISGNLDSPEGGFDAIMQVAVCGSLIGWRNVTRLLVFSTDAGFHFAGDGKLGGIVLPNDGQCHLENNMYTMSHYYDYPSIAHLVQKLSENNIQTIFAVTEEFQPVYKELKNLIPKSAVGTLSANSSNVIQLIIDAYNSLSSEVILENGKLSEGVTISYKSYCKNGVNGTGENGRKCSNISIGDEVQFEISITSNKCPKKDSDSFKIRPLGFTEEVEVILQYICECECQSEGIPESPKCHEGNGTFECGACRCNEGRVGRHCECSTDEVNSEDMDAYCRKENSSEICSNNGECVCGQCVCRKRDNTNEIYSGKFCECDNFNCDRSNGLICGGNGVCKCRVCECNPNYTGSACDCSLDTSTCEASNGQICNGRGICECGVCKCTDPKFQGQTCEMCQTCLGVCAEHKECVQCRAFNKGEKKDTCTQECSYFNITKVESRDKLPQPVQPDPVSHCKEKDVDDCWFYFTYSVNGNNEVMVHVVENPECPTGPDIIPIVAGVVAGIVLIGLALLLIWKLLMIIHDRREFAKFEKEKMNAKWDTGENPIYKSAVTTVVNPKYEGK
# Integrin alpha-5/beta-1, sequence (P08648 42-894 limits assumed): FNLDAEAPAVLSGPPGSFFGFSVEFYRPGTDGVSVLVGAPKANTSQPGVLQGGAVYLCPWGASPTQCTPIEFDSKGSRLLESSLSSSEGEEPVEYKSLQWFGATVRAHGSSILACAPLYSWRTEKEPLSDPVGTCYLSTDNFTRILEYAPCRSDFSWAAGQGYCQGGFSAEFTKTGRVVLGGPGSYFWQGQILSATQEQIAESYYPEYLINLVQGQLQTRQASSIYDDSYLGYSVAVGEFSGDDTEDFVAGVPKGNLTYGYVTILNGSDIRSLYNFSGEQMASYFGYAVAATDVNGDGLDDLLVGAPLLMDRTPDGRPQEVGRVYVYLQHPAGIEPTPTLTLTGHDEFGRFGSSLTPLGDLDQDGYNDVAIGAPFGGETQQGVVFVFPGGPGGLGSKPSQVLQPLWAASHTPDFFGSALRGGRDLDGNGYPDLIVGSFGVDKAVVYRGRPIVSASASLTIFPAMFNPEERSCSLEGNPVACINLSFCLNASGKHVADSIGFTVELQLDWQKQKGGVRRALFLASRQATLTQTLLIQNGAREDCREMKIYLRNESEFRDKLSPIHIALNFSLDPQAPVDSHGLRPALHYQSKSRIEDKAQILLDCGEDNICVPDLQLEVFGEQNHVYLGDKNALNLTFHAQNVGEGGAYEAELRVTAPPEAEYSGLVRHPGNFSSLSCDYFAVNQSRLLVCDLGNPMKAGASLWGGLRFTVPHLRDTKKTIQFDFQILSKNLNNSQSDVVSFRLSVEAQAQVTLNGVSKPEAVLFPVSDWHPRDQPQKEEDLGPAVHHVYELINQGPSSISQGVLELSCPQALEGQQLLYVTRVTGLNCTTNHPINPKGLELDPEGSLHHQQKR
# Integrin alpha-5/beta-1, sequence (P08648 895-1049 limits assumed): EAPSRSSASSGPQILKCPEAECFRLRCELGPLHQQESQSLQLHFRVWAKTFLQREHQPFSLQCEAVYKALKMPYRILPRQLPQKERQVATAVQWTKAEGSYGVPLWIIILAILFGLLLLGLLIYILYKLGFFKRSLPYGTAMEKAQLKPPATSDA
SMILES,Ratio IC50 (Homo sapiens),IC50 (Integrin alpha-V/beta-5),IC50 (Integrin alpha-V/beta-3 [1]),IC50 (Integrin alpha-V/beta-3 [2]),IC50 (Integrin alpha-5/beta-1),IC50 [3]
CC(C)C[C@@H]1NC(=O)[C@@H]2CSCc3cc4cc(c3)CSC[C@H](NC(=O)[C@H](C(C)C)NC(=O)[C@@H](Cc3ccccc3)NC(=O)[C@H](CC(=O)O)NC(=O)CNC(=O)[C@H](CCCNC(=N)N)NC(=O)[C@H](CSC4)NC(=O)CNC(=O)CNC(=O)CNC(=O)[C@H]([C@H](C)O)NC(=O)[C@H](CCCCN)NC(=O)[C@@H]3CCCN3C1=O)C(=O)N[C@@H](CCCNC(=N)N)C(=O)NCC(=O)N[C@H](CC(=O)O)C(=O)N[C@H](Cc1ccccc1)C(=O)N[C@H](C(C)C)C(=O)N2,0.006,30.2 µM,25.1 µM,0.2 µM,0.154 µM,> 1 µM
CC(C)C[C@@H]1NC(=O)[C@@H]2CSSC[C@@H]3NC(=O)[C@H](CSSC[C@H](NC(=O)[C@H](C(C)C)NC(=O)[C@@H](Cc4ccccc4)NC(=O)[C@H](CC(=O)O)NC(=O)CNC(=O)[C@H](CCCNC(=N)N)NC3=O)C(=O)N[C@@H](CCCNC(=N)N)C(=O)NCC(=O)N[C@@H](CC(=O)O)C(=O)N[C@H](Cc3ccccc3)C(=O)N[C@@H](C(C)C)C(=O)N2)NC(=O)CNC(=O)CNC(=O)[C@H]([C@@H](C)O)NC(=O)[C@H](CCCCN)NC(=O)[C@@H]2CCCN2C1=O,0.041,208 µM,34 µM,8.43 µM,0.154 µM,> 1 µM
